Measured values from patent US20240390484A1 (priority 2022, published 2024).

Tests used:
[1] = Particle size and polydispersity index (PDI) by Dynamic Light Scattering; type: physicochemical; conditions: for “Ready-to-use” S2P RNA formulation PDI / “Ready-to-use” S2P RNA formulation Size: 48/40.5/10/1.5 mol %, blank-LNP added to lyophilized S2P RNA (55 ug/vial), N/P 7; for Blank-LNP PDI / Blank-LNP Size: 48/40.5/10/1.5 mol % ionizable lipid/cholesterol/DSPC/DMG-PEG
Protocol: (§1) Lipid nanoparticles (LNPs) were formed or formulated by rapid mixing of an ethanol phase and an aqueous phase using a microfluidic device. The aqueous phase included a 50 mM citrate buffer (pH 5.5). The ethanol phase included an ionizable lipid (as described herein), cholesterol (Jiangsu Southeast Nanomaterials), 1,2-diastearoyl-sn-glycero-3-phosphocholine (DSPC) (Jiangsu Southeast Nanomaterials) and 1,2-dimyristoyl-rac-glycero-3-methoxypolyethylene glycol-2000 (DMG-PEG2000) (SINOPEG). A series of ionizable lipids were evaluated. These four lipid components were mixed at defined molar ratios in ethanol, for instance, at a molar ratio of 48:40.5:10:1.5 (ionizable lipid:cholesterol:DSPC:DMG-PEG2000). The generated LNP particles were purified in citrate buffer (containing sucrose) and characterized with respect to particle size, polydispersity index (PDI) and ionizable lipid concentration. The LNP solution was then diluted to the target concentration and stored at 2-8° C.
(§2) In the case of a filled LNP, for example, an LNP-encapsulated S-2P RNA liquid drug product, the preparation protocol is essentially the same, except that it was an aqueous solution of S-2P RNA in citrate buffer pH 5-6 that constitutes the aqueous phase for LNP formation. The LNP-encapsulated RNA formulation is also referred to as “RNA-LNP” in this disclosure. Regarding characterization, particle size and polydispersity index (PDI) of the RNA-LNP were determined by Dynamic Light Scattering (DLS); RNA encapsulation efficiency and concentration were determined by means of Ribogreen® assay and RNA purity was determined by agarose gel electrophoresis.
(§3) The “ready-to-use” RNA product was manufactured by transferring a predetermined amount of already formed LNP in solution to a sealed vial containing the lyophilized RNA composition, followed by mixing at room temperature. The amount of LNP added per vial (e.g., 30-100 μg RNA per vial) was determined based on the molar ionizable lipid:RNA (N/P) molar ratio of 7. In this disclosure, “ready-to-use” S-2P RNA formulations (also referred to as “LNP(S-2P RNA)”) containing 30-100 μg/mL S-2P RNA were prepared, and then characterized with respect to particle size, polydispersity index, as well as RNA concentration, complexation efficiency, and purity using the same methods as described above in Example 3.

[2] = RNA encapsulation/complexation efficiency by Ribogreen assay; type: physicochemical; conditions: 48/40.5/10/1.5 mol %; blank-LNP added to lyophilized S2P RNA (55 ug/vial), N/P 7
Protocol: as §2, §3

[3] = tested on: BHK-21 cells; type: cell-based; conditions: ready-to-use S2P RNA, 4 μg, 48 hours post transfection; 48/40.5/10/1.5 mol %
[4] = tested on: Vero E6 cells; type: cell-based; conditions: ready-to-use S2P RNA, 4 μg, 48 hours post transfection; 48/40.5/10/1.5 mol %
[5] = Stability of blank-LNP at 2-8° C. (particle size, PDI); type: physicochemical; conditions: blank-LNP 48/40.5/10/1.5 mol %
Protocol: as §1
Each generated blank-LNP formulation was added to and mixed with lyophilized S2P RNA, altogether yielding a series of “ready-to-use” S2P RNA test items containing the different ionizable lipids. The pharmaceutical characteristics (Table 3) and in vitro transfection efficiency (Table 4) of these “ready-to-use” RNA test items were compared head-to-head. In parallel, the stability profiles of these […] blank-LNP formulations (i.e. without RNA complexation) were assessed at 2-8° C. (see Table 5).
The generated fourteen blank-LNP formulations were characterized in terms of particle size and PDI, both at the end of manufacturing (T=0) and 8-week storage at 2-8° C. […] (defined as size increase ≤20 nm in 8 weeks), namely DMG-PEG2000 between at least 1-4 mol %, DSPC between at least 5-20 mol %, ionizable lipid between at least 30-70 mol % and cholesterol between at least 18.5-58.5 mol %.

| Compound | “Ready-to-use” S2P RNA formulation PDI [1] | “Ready-to-use” S2P RNA formulation Size [1] | Blank-LNP PDI [1] | Blank-LNP Size [1] | “Ready-to-use” S2P RNA formulation RNA complexation efficiency [2] | RBD expression in BHK-21 cells [3] | RBD expression in Vero E6 cells [4] | Change in size (nm) vs. T0, T = 1 month [5] | PDI, T = 1 month [5] | Size, T = 1 month [5] | Change in size (nm) vs. T0, T = 2 weeks [5] | PDI, T = 2 weeks [5] | Size, T = 2 weeks [5] | PDI, T = 0 [5] | Size, T = 0 [5] |
| --- | --- | --- | --- | --- | --- | --- | --- | --- | --- | --- | --- | --- | --- | --- | --- |
| CCCCCCOCCC/C=C/COC(=O)CCCCCCCCC(CCCCCCCCC(=O)OC/C=C/CCCOCCCCCC)OC(=O)CCCN(C)C [Lipid #11] | 0.11 | 266 nm | 0.09 | 165 nm | 34% | 0.52 ng/mL | 0.20 ng/mL | +59 nm | 0.06 | 224 nm | +42 nm | 0.04 | 207 nm | 0.09 | 165 nm |
| CCCCCCCCOC/C=C\COC(=O)CCCCCCCCC(CCCCCCCCC(=O)OC(CCCCCCCC)CCCCCCCC)OC(=O)CCCN(C)C (stereo not drawn) [Lipid #12] | 0.14 | 172 nm | 0.04 | 85 nm | 27% | 0.19 ng/mL | <LOD | +12 nm | 0.11 | 97 nm | +8 nm | 0.06 | 93 nm | 0.04 | 85 nm |
